Patent US9212167B2, “Mitochondrial targeted stimulators of apoptosis” (The Rockefeller University, priority 2011, dated 2015)

How the values were obtained:
Format in all cases: cell-based
HeLa cells [1] = assay: Alamar Blue cell viability, HeLa cells; conditions: ten-point dose response, up to 50 μM, FIG. 1
Experimental: (§1) The compound described above as Compound 15 was tested for its effect on the viability of cells using Alamar Blue staining. This reagent takes advantage of the conversion by healthy cells of a non-fluorescent molecule, resazurin, to the brightly red-fluorescent resorufin. The assay was performed in 384 well plate format, and the fluorescence (560 nm Ex/590 nm Em) was detected and quantified using a Perkin-Elmer Envision plate reader. Four samples were compared. Samples were the compound identified as 2PA in paragraph [0014] (i.e. just “A” without “L” or “B”), a dimer of 2PA (i.e. A-L-A, wherein L is C6H4):
(§2) PK11195 alone and Compound 15. Ten-point dose responses were performed in both HeLa and T98G cells to determine the concentration at which each compound was effective.

T98G cells = assay: Alamar Blue cell viability, T98G cells; conditions: ten-point dose response, up to 50 μM, FIG. 2
Experimental: as §1, §2

HeLa cells [2] = assay: Count of apoptotic HeLa cells with and without pan-caspase inhibitor ZVAD-FMK; conditions: 40 μM, 3 or 6 hours
Experimental: To verify the induction of apoptosis by Compound 15, HeLa cells were treated with 40 μM of the compound and incubated for 3 or 6 hours in the presence and absence of pan-caspase inhibitor ZVAD-FMK. Apoptotic cells were counted at the indicated times in each condition.

Compound: CCC(C)N(C)C(=O)c1cc2ccccc2c(-c2ccccc2Cl)n1 (stereo not shown) [PK11195]
- cell killing (percent survival as a function of concentration) (HeLa cells [1]): do not kill at any concentration
- cell killing (percent survival as a function of concentration) (T98G cells): do not kill at any concentration

Compound: CN[C@@H](C)C(=O)N[C@H](C(=O)N1CCC[C@H]1Cn1nnnc1Sc1ccccc1)C(C)OCc1cn(CCOCCOCCOCCNC(=O)c2cc3ccccc3c(-c3ccccc3Cl)n2)nn1 (stereo partly shown) [Compound 15]
- cell killing (percent survival as a function of concentration) (HeLa cells [1]): kills both HeLa and T98G cells effectively
- induction of apoptosis (apoptotic cells counted) (HeLa cells [2]; absence of ZVAD-FMK): can induce cell death
- induction of apoptosis (apoptotic cells counted) with caspase inhibitor (HeLa cells [2]; presence of pan-caspase inhibitor ZVAD-FMK): the caspase inhibitor can prevent this induction of cell death
- cell killing (percent survival as a function of concentration) (T98G cells): kills both HeLa and T98G cells effectively

Compound: C#CCOC(C)C(NC(=O)C(C)NC)C(=O)N1CCCC1Cn1nnnc1Sc1ccccc1 (stereo not shown) [monomer]
- cell killing (percent survival as a function of concentration) (HeLa cells [1]): do not kill at any concentration
- cell killing (percent survival as a function of concentration) (T98G cells): do not kill at any concentration

Compound: CNC(C)C(=O)NC(C(=O)N1CCCC1Cn1nnnc1Sc1ccccc1)C(C)OCC#CC#CCOC(C)C(NC(=O)C(C)NC)C(=O)N1CCCC1Cn1nnnc1Sc1ccccc1 (stereo not shown) [dimer]
- cell killing (percent survival as a function of concentration) (HeLa cells [1]): do not kill at any concentration
- cell killing (percent survival as a function of concentration) (T98G cells): do not kill at any concentration
